Patent US6566355B1 (Hoffmann-La Roche Inc., priority 1991, dated 2003)
pIC50: −log10 of the molar value. Where a name gives a salt, the structure may show the parent alone. Read-outs that look alike come from different tables or passages of the source.

Columns and labels:
Citrobacter freundii = experiment: MIC in vitro of a 1:4 combination of ceftriaxone with a compound of formula I (test D); type: cell-based
Protocol: D. Determination of the β-lactamase-inhibiting activity by combination of a compound of general formula I with ceftriaxone
The minimum inhibitory concentration in vitro (MIC in μg/ml) of a 1:4 combination of ceftriaxone with a compound of formula I against Citrobacter freundii is measured and compiled in Table 2 hereinafter.

β-lactamase = target: T1, β-lactamase (Citrobacter freundii, UniProt P05193); experiment: biochemical
T1 construct: Various β-lactamases can be isolated from penicillin- or cephalosporin-resistant bacterial strains such as; endogenous in cells; host or cells: Citrobacter freundii 1203 (enzyme purified from the crude cell extract, after ampicillin induction when necessary)
Protocol: A. Isolation of the β-lactamases
Various β-lactamases can be isolated from penicillin- or cephalosporin-resistant bacterial strains such as Klebsiella pneumoniae NCTC 418, Proteus vulgaris 1028, Bacillus licheniformis 749/C, Escherichia coli SN01 and Citrobacter freundii 1203. For this purpose, the corresponding strains are cultivated in Tryptic Soy Broth (Difco) and harvested by centrifugation in the last logarithmic growth phase (when necessary 50-100 mg/l of ampicillin are added to the medium towards the end of the log-phase in order to induce the β-lactamase). The thus-obtained bacterial mass is treated with 20 mM Tris-HCl buffer (pH 7.0); the cells are broken open with a French press while cooling. The mixture is centrifuged (20,000 r/min.) for 20-30 minutes and a clear crude extract is obtained.
B. Determination of the β-lactamase activity
The determination of the activity of the isolated β-lactamases can be carried out according to the method of O'Callaghan, C. H. et al. [Antimicr. Ag. Chemother., 1, 283-288 (1972)] using the chromogenic cephalosporin nitrocefin (87/312 from Glaxo). The requisite test batch contains per ml of water: 50 mM phosphate buffer (pH 7.0), 0.1 mM nitrocefin and sufficient enzyme (β-lactamase) to achieve a ΔA/min. of about 0.1. The cleavage of the substrate, which is accompanied by a change in colour, is effected at 37° C. and is followed quantitatively at 482 nm using a spectral photometer.
C. Determination of the β-lactamase-inhibiting activity of the compounds of general formula I
The above-described cleavage of the chromogenic substrate by β-lactamases (test B.) can be inhibited by the addition of compounds of general formula I (inhibitors). […] As a measurement for the affinity of the particular tested inhibitor to the β-lactamase, which is a measurement of the strength of the inhibitor, there serves that concentration which inhibits by 50% (IC 50 in nM) the cleavage of the substrate (nitrocefin) effected under the above test conditions (test B) in the absence of an inhibitor. […] The determination of the IC50 was effected by means of a graph.
(Test organism: Citrobacter freundii)

[1] = 1:4 combination of ceftriaxone with the compound
[2] = isolated β-lactamase of Citrobacter freundii; substrate nitrocefin 0.1 mM; 15 minutes pre-incubation with inhibitor; 37° C., pH 7.0; read-out: IC 50 nM
[3] = IC 50 nM, isolated β-lactamase of Citrobacter freundii; substrate nitrocefin 0.1 mM; 15 minutes pre-incubation with inhibitor; 37° C., pH 7.0

T1 sequence (P05193 21-381): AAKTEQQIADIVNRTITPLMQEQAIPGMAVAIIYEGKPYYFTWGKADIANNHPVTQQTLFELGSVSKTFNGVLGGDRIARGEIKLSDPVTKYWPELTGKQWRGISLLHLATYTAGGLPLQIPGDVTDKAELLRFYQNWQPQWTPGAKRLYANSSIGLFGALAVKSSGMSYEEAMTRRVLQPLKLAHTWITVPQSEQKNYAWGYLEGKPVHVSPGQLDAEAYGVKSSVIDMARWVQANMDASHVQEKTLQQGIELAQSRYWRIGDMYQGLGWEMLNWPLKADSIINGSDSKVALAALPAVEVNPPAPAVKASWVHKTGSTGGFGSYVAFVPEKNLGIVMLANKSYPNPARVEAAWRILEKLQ

Mixture of (1S,5R)-2-[(E)-3-(1-Methyl-3- and -4- or -3- and -5- or -4- and -5-sulfo-pyrrol-2-yl)acryloyl]-7-oxo-2,6-diazabicyclo[3.2.0]heptane-6-sulfonic acid sodium salt (1:2) [23(j)]
MIC (Citrobacter freundii; [1]): 1 µg/mL | IC50 (β-lactamase; [2]): 38 nM

Nc1nnc(SCC(=O)Nc2nnc(SCC(=O)N3CC[C@@H]4[C@H]3C(=O)N4S(=O)(=O)O)s2)s1 [6(w), (1S,5R)-2-[5-(5-Amino-1,3,4-thiadiazol-2-ylsulfanylacetylamino)-1,3,4-thiadiazol-2-ylsulfanylacetyl]-7-oxo-2,6-diazabicyclo[3.2.0]heptane-6-sulfonic acid sodium salt]
IC50 (β-lactamase; [3]): 22 nM

Cn1nnnc1S[C@@H]1CN(C(=O)OCc2ccccc2)[C@@H]2C(=O)N(S(=O)(=O)O)[C@@H]21 [Example 22, (1S,4R,5S)-2-Benzyloxycarbonyl-4-(1-methyl-1H-tetrazol-5-yl-thio)-7-oxo-2,6-diazabicyclo[3.2.0]heptane-6-sulphonic acid sodium salt]
IC50 (β-lactamase; [3]): 220 nM

COC(=O)NN1CC[C@@H]2[C@H]1C(=O)N2S(=O)(=O)[O-].[Na+] [Example 18, Methyl (1S,5R)-7-oxo-6-sulpho-2,6-diazabicyclo[3.2.0]heptane-2-carbamate sodium salt]
MIC (Citrobacter freundii; [1]): 1 µg/mL

O=C(NCc1cccs1)N1CC[C@@H]2[C@H]1C(=O)N2S(=O)(=O)O [17(p), (1S,5R)-2-(2-Thien-2-ylmethylcarbamoyl)-7-oxo-2,6-diazabicyclo[3.2.0]heptane-6-sulphonic acid sodium salt]
pIC50 (β-lactamase): 6.42

CSCC[C@@H](NC(=O)c1ccccc1)C(=O)N1CC[C@@H]2[C@H]1C(=O)N2S(=O)(=O)O.[Na] [5(h), (1S,5R)-2-[(R,S)-2-Benzamido-4-(methylthio)butyryl]-7-oxo-2,6-diazabicyclo[3.2.0]heptane-6-sulphonic acid sodium salt]
MIC (Citrobacter freundii; [1]): 4 µg/mL

NC(=O)/C=C1\CN(C(=O)OCc2ccccc2)[C@@H]2C(=O)N(S(=O)(=O)O)[C@H]12 [14(b), (1S,5R)(E)-2-Benzyloxycarbonyl-4-carbamoylmethylene-7-oxo-2,6-diazabicyclo[3.2.0]heptane-6-sulphonic acid sodium salt]
IC50 (β-lactamase; [3]): 65 nM

O=C(c1cc2ccccc2[nH]1)N1CC[C@@H]2[C@H]1C(=O)N2S(=O)(=O)O (racemic) [6(j)]
IC50 (β-lactamase; [2]): 280 nM

O=C(NC1CC1)N1CC[C@@H]2[C@H]1C(=O)N2S(=O)(=O)O [17(i), (1S,5R)-2-Cyclopropylcarbamoyl)-7-oxo-2,6-diazabicyclo[3.2.0]heptane-6-sulphonic acid sodium salt]
pIC50 (β-lactamase): 6.61

O=C(NCC(=O)N1CC[C@@H]2[C@H]1C(=O)N2S(=O)(=O)O)OCc1ccccc1 [4(g), Benzyl[[[(1S,5R)-7-oxo-6-sulpho-2,6-diazabicyclo[3.2.0]-hept-2-yl]carbonyl]methyl]carbamate]
pIC50 (β-lactamase): 6.41

O=C(OCc1ccccc1)N1C[C@@H](Cl)[C@@H]2[C@H]1C(=O)N2S(=O)(=O)O [Example 15, (1S,4R,5S)-2-Benzyloxycarbonyl-4-chloro-7-oxo-2,6-diazabicyclo[3.2.0]heptane-6-sulphonic acid sodium salt]
IC50 (β-lactamase; [3]): 630 nM

NC(=O)/C=C1/CN(C(=O)OCc2ccccc2)[C@@H]2C(=O)N(S(=O)(=O)O)[C@H]12 [14(c), (1S,5R)(Z)-2-Benzyloxycarbonyl-4-carbamoylmethylene-7-oxo-2,6-diazabicyclo[3.2.0]heptane-6-sulphonic acid sodium salt]
IC50 (β-lactamase; [3]): 826 nM

CCN(CC)CC.Nc1nc(C(N)C(=O)N2CC[C@@H]3[C@H]2C(=O)N3S(=O)(=O)O)cs1 (mixture of isomers) [6(r), (1S,5R)-2-[DL-2-(2-Amino-4-thiazolyl)glycyl] -7-oxo-2,6-diazabicyclo[3.2.0]heptane-6-sulphonic acid triethylamine salt]
MIC (Citrobacter freundii; [1]): 2 µg/mL

O=C(/C=C/c1ccc(O)cc1)N1CC[C@@H]2[C@H]1C(=O)N2S(=O)(=O)O [6(t), (1S,5R)-(E)-2-[3-(4-Hydroxy-phenyl)acryloyl]-7-oxo-2,6-diazabicyclo[3.2.0]heptane-6-sulphonic acid sodium salt]
IC50 (β-lactamase; [3]): 12 nM

CO/N=C(\C(=O)N[C@@H]1C(=O)N2C(C(=O)O)=C(CSc3nc(=O)c(=O)[nH]n3C)CS[C@H]12)c1csc(N)n1 [Ceftriaxone, ceftriaxone, reference compound]
MIC (Citrobacter freundii; ceftriaxone alone (control), read-out: MIC): 128 µg/mL

CCN(CC)CC.O=C([C@@H](O)c1ccccc1)N1CC[C@@H]2[C@H]1C(=O)N2S(=O)(=O)O [6(l), (1S,5R)-2-[(S)-α-Hydroxyphenylacetyl]-7-oxo-2,6-diazabicyclo[3.2.0]heptane-6-sulphonic triethylamine salt (1:1)]
MIC (Citrobacter freundii; [1]): 8 µg/mL

O=C(CNc1ccc2c(C(F)(F)F)cc(=O)oc2c1)N1CC[C@@H]2[C@H]1C(=O)N2S(=O)(=O)O [5(n), (1S,5R)-2-[N-[2-Oxo-4-(trifluoromethyl)-2H-1-benzopyran-7-yl]glycyl]-7-oxo-2,6-diazabicyclo[3.2.0]heptane-6-sulphonic acid sodium salt]
IC50 (β-lactamase; [3]): 67 nM

O=C(Nc1cccc(O)c1)N1CC[C@@H]2[C@H]1C(=O)N2S(=O)(=O)O [17(s), (1S,5R)-2-(3-Hydroxyphenylcarbamoyl)-7-oxo-2,6-diazabicyclo[3.2.0]heptane-6-sulphonic acid sodium salt]
IC50 (β-lactamase; [3]): 38 nM

COC(=O)/C=C1\CN(C(=O)OCc2ccccc2)[C@@H]2C(=O)N(S(=O)(=O)O)[C@H]12 [14(a), (1S,5R)-(E)-4-Methoxycarbonylmethylene-7-oxo-6-sulpho-2,6-diazabicyclo[3.2.0]heptane-2-carboxylic acid benzyl ester sodium salt]
IC50 (β-lactamase; [3]): 32 nM

O=C(NC1CCC1)N1CC[C@@H]2[C@H]1C(=O)N2S(=O)(=O)O [17(h), (1S,5R)-2-Cyclobutylcarbamoyl)-7-oxo-2,6-diazabicyclo[3.2.0]heptane-6-sulphonic acid sodium salt]
pIC50 (β-lactamase): 6.84

O=C1SCC[C@@H]1NC(=O)N1CC[C@@H]2[C@H]1C(=O)N2S(=O)(=O)O [17(t), (1S,5R)-7-Oxo-2-(S)-(2-oxo-3-tetrahydrothienyl-carbamoyl)-2,6-diazabicyclo[3.2.0]heptane-6-sulphonic acid sodium salt]
pIC50 (β-lactamase): 7.28

CC(C)(C)OC(=O)N1CC[C@@H]2[C@H]1C(=O)N2S(=O)(=O)O [1(b), sodium salt]
IC50 (β-lactamase; [2]): 225 nM

O=C1[C@H](NC(=O)N2CC[C@@H]3[C@H]2C(=O)N3S(=O)(=O)O)CCN1O [17(r), sodium salt]
IC50 (β-lactamase; read-out: IC 50 nM; isolated β-lactamase of Citrobacter freundii; substrate nitrocefin 0.1 mM; 15 minutes pre-incubation with inhibitor; 37° C., pH 7.0): 490 nM

(1S,5R)-(E)-3-Phenyl-acryloyl-2,6-diazabicyclo[3.2.0]heptane-6-sulphonic acid sodium salt [11(a)]
MIC (Citrobacter freundii; [1]): 8 µg/mL

O=C(OCc1ccccc1)N1C[C@@H](Cl)[C@@H]2[C@H]1C(=O)N2S(=O)(=O)O [16(b), (1S,4R,5S)-2-Benzyloxycarbonyl-4-chloro-7-oxo-2,6-diazabicyclo[3.2.0]heptane-6-sulphonic acid sodium salt]
IC50 (β-lactamase; [3]): 334 nM

O=C(OCc1ccccc1)N1C[C@H](F)[C@@H]2[C@H]1C(=O)N2S(=O)(=O)O [16(a), (1S,4S,5S)-4-Fluoro-7-oxo-6-sulpho-2,6-diazabicyclo[3.2.0]heptane-2-carboxylic acid benzyl ester sodium salt]
IC50 (β-lactamase; [3]): 14 nM

O=C(Nc1ccc(O)cc1)N1CC[C@@H]2[C@H]1C(=O)N2S(=O)(=O)O [17(w), (1S,5R)-2-(4-Hydroxyphenylcarbamoyl)-7-oxo-2,6-diazabicyclo[3.2.0]heptane-6-sulphonic acid sodium salt]
IC50 (β-lactamase; [3]): 109 nM

O=C([C@H](O)c1ccccc1)N1CC[C@@H]2[C@H]1C(=O)N2S(=O)(=O)[O-].[Na+] [6(k), (1S,5R)-2-[(R)-α-Hydroxyphenylacetyl]-7-oxo-2,6-diazabicyclo[3.4.0]heptane-6-sulphonic acid sodium salt (1:1)]
MIC (Citrobacter freundii; [1]): 8 µg/mL

CC(=O)N/C(=C\c1ccccc1)C(=O)N1CC[C@@H]2[C@H]1C(=O)N2S(=O)(=O)[O-].[Na+] [5(f), (1S,5R)-2-[(Z)-3-α-Acetamidocinnamoyl]-7-oxo-2,6-diazabicyclo[3.2.0]heptane-6-sulphonic acid sodium salt]
MIC (Citrobacter freundii; [1]): 16 µg/mL
